The record followed here is PubChem BioAssay AID652002 (Sanford-Burnham Center for Chemical Genomics, 2013).

The source made the active and inactive calls. No rule for the calls is given here.

The nature of assay [1]: compound enhancement of TRAIL-induced cell killing – NB7 cells plus caspase-8, luminescence, panel, dose response (AID 652002). The settings on record: NB7 neuroblastoma +caspase-8, no TRAIL, compound-alone cytotoxicity counter-screen, luminescence viability, NB7+Caspase-8. On the technique in general: A counterscreen serves to expose hits that act by an unwanted route or on another target.

For assay [2], the target named is NB7+Caspase-8. The assay is described as above. Conditions: NB7 neuroblastoma +caspase-8, TRAIL sensitization, luminescence viability, with TRAIL.
Assay [3] deals with Tumor necrosis factor receptor superfamily member 10B (Homo sapiens) (UniProt O14763). The assay is described as above. The settings on record: NB7 neuroblastoma +caspase-8, TRAIL sensitization, luminescence viability; NB7+Caspase-8; with TRAIL, mean of runs.
Chain of Tumor necrosis factor receptor superfamily member 10B (Homo sapiens) (O14763 whole entry, looked up): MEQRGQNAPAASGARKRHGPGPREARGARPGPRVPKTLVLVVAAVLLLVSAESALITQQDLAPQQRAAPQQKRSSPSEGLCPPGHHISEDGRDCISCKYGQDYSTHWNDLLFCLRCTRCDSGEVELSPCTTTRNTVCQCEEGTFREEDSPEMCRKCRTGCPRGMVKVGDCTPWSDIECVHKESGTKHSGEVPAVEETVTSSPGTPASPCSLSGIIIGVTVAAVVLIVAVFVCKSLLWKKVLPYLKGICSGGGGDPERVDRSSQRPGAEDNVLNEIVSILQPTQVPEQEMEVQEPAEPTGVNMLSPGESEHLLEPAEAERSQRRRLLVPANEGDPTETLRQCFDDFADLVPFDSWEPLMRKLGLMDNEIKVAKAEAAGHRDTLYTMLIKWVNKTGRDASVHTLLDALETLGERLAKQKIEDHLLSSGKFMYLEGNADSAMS
[4] abbreviates: run 1, single replicate panel EC50.
Setting [5] is: run 2, single replicate panel EC50.

Take `C(=C\c1ccco1)/c1nc2ccccc2[nH]1`: the EC50 in assay [1] (mean of runs) was > 12.5 µM (inactive); in assay [1] (setting [4]), greater than 12.5 µM; in assay [1] (setting [5]) it was greater than 12.5 µM; in assay [2] (setting [4]), greater than 12.5 µM; in assay [2] (setting [5]), greater than 12.5 µM; in assay [3] it was > 12.5 µM (inactive).

With `CCCCCCCn1c2c(c(=N)c3ccccc31)CCC2`, the EC50 in assay [1] (mean of runs) is > 12.5 µM (inactive); in assay [1] (setting [4]), greater than 12.5 µM; in assay [1] (setting [5]), greater than 12.5 µM; in assay [2] (setting [4]) it was greater than 12.5 µM; in assay [2] (setting [5]), 4.65 µM. For the same compound, in assay [3], the EC50 entry was “inactive”.

With `CCN(CC)c1ccc(/C=N/NC(=O)c2ccco2)cc1`, the EC50 in assay [1] (mean of runs) is > 12.5 µM (inactive); in assay [1] (setting [4]), greater than 12.5 µM; in assay [1] (setting [5]) it was greater than 12.5 µM; in assay [2] (setting [4]), greater than 12.5 µM; in assay [2] (setting [5]), greater than 12.5 µM; in assay [3], > 12.5 µM (inactive).

Turning to `COCCNc1c(-c2cc3ccc(C)c(C)c3[nH]c2=O)nc2ccccn12`, the EC50 result in assay [1] (mean of runs) and in assay [3] was “inactive” in each case. Moreover, the EC50 in assay [1] (setting [4]) is greater than 12.5 µM; in assay [1] (setting [5]), 6.1 µM; in assay [2] (setting [4]) it was 8.39 µM; in assay [2] (setting [5]), 4.64 µM.

As for `c1ccc(Nc2nnc(-c3cccnc3)s2)cc1`, the EC50 in assay [1] (mean of runs) was > 12.5 µM (inactive); in assay [1] (setting [4]) it was greater than 12.5 µM; in assay [1] (setting [5]), greater than 12.5 µM; in assay [2] (setting [4]), greater than 12.5 µM; in assay [2] (setting [5]) it was 5.66 µM. The EC50 entry in assay [3] was “inactive”.

Consider `CN1C[C@@H]2[C@@H]3C(=O)N(Cc4ccccc4)C(=O)[C@@H]3[C@](Cc3ccccc3)(C1=O)N2C(=O)c1ccc(C(C)(C)C)cc1`, for which the EC50 in assay [1] (mean of runs) was > 12.5 µM (inactive); in assay [1] (setting [4]), greater than 12.5 µM; in assay [1] (setting [5]), greater than 12.5 µM; in assay [2] (setting [4]) it was greater than 12.5 µM; in assay [2] (setting [5]), greater than 12.5 µM; in assay [3], > 12.5 µM (inactive).

On to `O=c1cc(-c2ccccc2)nc2cc(-c3ccc(F)cc3)[nH]n12`, for which the EC50 in assay [1] (mean of runs) was > 12.5 µM (inactive); in assay [1] (setting [4]), greater than 12.5 µM; in assay [1] (setting [5]), greater than 12.5 µM; in assay [2] (setting [4]), greater than 12.5 µM; in assay [2] (setting [5]), greater than 12.5 µM; in assay [3], > 12.5 µM (inactive).

As for `CN(C)S(=O)(=O)c1ccc(C(=O)Nc2nnc(SCC(=O)NCC3CCCO3)s2)cc1` (stereo not given), the EC50 is > 12.5 µM (inactive) in assay [1] (mean of runs); greater than 12.5 µM in assay [1] (setting [4]); greater than 12.5 µM in assay [1] (setting [5]); greater than 12.5 µM in assay [2] (setting [4]); greater than 12.5 µM in assay [2] (setting [5]); > 12.5 µM (inactive) in assay [3].

`COc1ccc2sc(-c3ccc(S(C)(=O)=O)cc3)c(C#Cc3cncn3C)c2c1`: the EC50 in assay [1] (mean of runs) was > 12.5 µM (inactive); in assay [1] (setting [4]) it was greater than 12.5 µM; in assay [1] (setting [5]) it was greater than 12.5 µM; in assay [2] (setting [4]), greater than 12.5 µM; in assay [2] (setting [5]) it was greater than 12.5 µM; in assay [3] it was > 12.5 µM (inactive).

Regarding `COc1ccc(/C=N/Nc2nc3ccccc3c(=O)n2-c2ccccc2)cc1OC`, the EC50 entry in assay [1] (mean of runs) and in assay [3] was “inactive” throughout. For the same compound, the EC50 in assay [1] (setting [4]) was 7.35 µM; in assay [1] (setting [5]), 9.86 µM; in assay [2] (setting [4]), greater than 12.5 µM; in assay [2] (setting [5]), 9.41 µM.

As for `CCOC(=O)c1sc(NC(=O)c2cccc(S(=O)(=O)N3CCc4ccccc43)c2)c(C#N)c1C`, the EC50 in assay [1] (mean of runs) was > 12.5 µM (inactive); in assay [1] (setting [4]), greater than 12.5 µM; in assay [1] (setting [5]), greater than 12.5 µM; in assay [2] (setting [4]) it was greater than 12.5 µM; in assay [2] (setting [5]), greater than 12.5 µM; in assay [3], > 12.5 µM (inactive).

`CCOC(=O)[C@]12Cc3cc4ccccc4cc3[C@H]1N(Cc1ccccc1)C(=O)c1ccccc12`: the EC50 in assay [1] (mean of runs) is > 12.5 µM (inactive); in assay [1] (setting [4]), greater than 12.5 µM; in assay [1] (setting [5]), greater than 12.5 µM; in assay [2] (setting [4]), greater than 12.5 µM; in assay [2] (setting [5]) it was greater than 12.5 µM; in assay [3], > 12.5 µM (inactive).

On to `CC1(C)N=C(N)N=C(N)N1c1ccc(Oc2ccc(Cl)cc2)c(Cl)c1`, for which the EC50 result in assay [1] (mean of runs) and in assay [3] was “inactive” each time. Moreover, the EC50 in assay [1] (setting [4]) amounted to 1.64 µM; in assay [1] (setting [5]) it was 0.423 µM; in assay [2] (setting [4]), 1.33 µM; in assay [2] (setting [5]), 0.948 µM.

As to `O=c1[nH]c(=S)[nH]c2c1C(c1ccc(Cl)c(Cl)c1)OC(CCc1ccccc1)C2` (stereo not given), the EC50 in assay [1] (mean of runs) is > 12.5 µM (inactive); in assay [1] (setting [4]), greater than 12.5 µM; in assay [1] (setting [5]), greater than 12.5 µM; in assay [2] (setting [4]), greater than 12.5 µM; in assay [2] (setting [5]) it was greater than 12.5 µM; in assay [3], > 12.5 µM (inactive).

`O=C1CCCc2nc(N3CCc4ccccc43)ncc21`: the EC50 was > 12.5 µM (inactive) in assay [1] (mean of runs); greater than 12.5 µM in assay [1] (setting [4]); greater than 12.5 µM in assay [1] (setting [5]); greater than 12.5 µM in assay [2] (setting [4]); greater than 12.5 µM in assay [2] (setting [5]); > 12.5 µM (inactive) in assay [3].

A word on the EC50: it is the concentration giving half of the maximal effect.
